The text below walks through data of article PMC4363860 (Scientific Reports, 2015).

Series [1] deals with Human blood (red cells, 1% hematocrit). The settings on record: 3 h incubation in PBS 37°C; published data; cited from earlier work. The source says:
Table 1 Structure-activity study highlighting biophysical attributes of N-terminal OAK derivatives | column: LC50 ^d (μM)

The test system of series [2] is panel of GNB: E. coli 35218, 14182, 16327, 16329, 14384, S. Typhimurium 14028, S. stanley 7308, K. pneumoniae 1287, KPC2. As to the kind of experiment: MIC and chemo-sensitization, one result for the whole panel of GNB (Suppl. Table S1).
The subject of the next series is E. coli. Nature of the series: MIC and reciprocal sensitization (Fig. 2a,b; Suppl. Figs S2, S3). The series is classed as cell-based, Escherichia coli.
The subject of a further series is Klebsiella. Nature of the series: MIC (Suppl. Figs S2, S3). The class given is cell-based.
Where [3] appears, read: one value for all nine listed strains.
Setting [4] is: one value for all nine listed strains, OAK 1.25 µg/ml.
The mark [5] stands for this setting: one value for all nine listed strains, OAK 2.5 µg/ml.
[6] abbreviates: one value for all nine listed strains, OAK 5 µg/ml.

As a reminder, the MIC is the lowest concentration that inhibits growth of the organism.

Where two headings read alike, the source gives them in different places. Where a SMILES comes first, the peptide text is derived from it. [ ]: non-standard residue; d: D form. The star is where a group is joined. Lauroyl = CCCCCCCCCCCC(=O)*; 12Ado = NCCCCCCCCCCCC(=O)O Where only a bound is given, the exact number is not on record here.

`CCCCCCCCCCCC(=O)N[C@@H](CCCCN)C(=O)N[C@@H](CCCCN)C(=O)NCCCCCCCCCCCC(=O)N[C@@H](CCCCN)C(N)=O` [C12X] (Lauroyl-KK[12Ado]K-NH2): the “LC50, OAK concentration that induced 50% hemolysis” value in series [1] is 29 ± 9 µM.
As to `CC1(C)S[C@@H]2[C@H](NC(=O)Cc3ccccc3)C(=O)N2[C@H]1C(=O)O` [Penicillin G, penicillin G], the “SF, sensitization factor, penicillin G with C10KKc12K” value in series [2] (setting [3]) was determined as 1. The “SF, sensitization factor, penicillin G with C12(ω7)KKc12K” value in series [2] (setting [3]) is listed as 1. The “MIC of penicillin G in presence of C10KKc12K” value in series [2] (setting [4]), in series [2] (setting [5]) and in series [2] (setting [6]) was greater than 512 µg/mL each time. The “MIC of penicillin G in presence of C12(ω7)KKc12K” value in series [2] (setting [4]), in series [2] (setting [5]) and in series [2] (setting [6]) was greater than 512 µg/mL throughout. Also, the MIC in series [2] (read-out: MIC of penicillin G in presence of C10KKc12K) and in series [2] (read-out: MIC of penicillin G in presence of C12(ω7)KKc12K) was greater than 512 µg/mL in each case.
Take `NCCCC[C@H](NC(=O)CCCCCCCCCCCNC(=O)[C@H](CCCCN)NC(=O)[C@@H](N)CCCCN)C(N)=O` [X, lysyl-lysyl-aminododecanoyl-lysyl-amide] (H-KK[12Ado]K-NH2): the “LC50, OAK concentration that induced 50% hemolysis” value in series [1] is greater than 100 µM.
Take `CC[C@H]1OC(=O)[C@H](C)[C@@H](O[C@H]2C[C@@](C)(OC)[C@@H](O)[C@H](C)O2)[C@H](C)[C@@H](O[C@@H]2O[C@H](C)C[C@H](N(C)C)[C@H]2O)[C@](C)(O)C[C@@H](C)C(=O)[C@H](C)[C@@H](O)[C@]1(C)O` [erythromycin]: the “standalone antibiotic MIC” value in the series with E. coli and in the series with Klebsiella was 512 µg/mL each time.
